In one test the target is Prothrombin (Homo sapiens, UniProt P00734). Kind of test: Inhibitory constant evaluated against thrombin (Factor IIa).
The species named for a further test is Homo sapiens. Kind of test: Concentration needed to double the activated partial thromboplastin time in human plasma. It is filed as functional.
Test [1] has as its target T1, Serine protease 1 (Homo sapiens, UniProt P07477). Kind of test: Inhibitory constant evaluated against trypsin.
Test [2] deals with T1, Serine protease 1. Kind of test: Ratio of inhibitory constant evaluated against trypsin to that of thrombin (Factor IIa).

The text below walks through data of ChEMBL document CHEMBL1136286, “Unexpected enhancement of thrombin inhibitor potency with o-aminoalkylbenzylamides in the P1 position” (Bioorg Med Chem Lett, 2003).

T1 sequence (P07477 whole entry): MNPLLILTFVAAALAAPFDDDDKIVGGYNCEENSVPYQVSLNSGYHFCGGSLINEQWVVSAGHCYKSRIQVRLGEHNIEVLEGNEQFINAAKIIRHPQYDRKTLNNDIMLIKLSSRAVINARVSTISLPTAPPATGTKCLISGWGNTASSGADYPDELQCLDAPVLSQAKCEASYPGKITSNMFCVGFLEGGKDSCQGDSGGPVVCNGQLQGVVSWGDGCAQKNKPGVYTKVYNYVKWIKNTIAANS

Broadly, the Ki is a measure of affinity in units of concentration, obtained from inhibition or displacement. The low end stands for higher affinity, the high end for lower affinity. Turning to `Cc1ccc(NS(=O)(=O)Cc2ccccc2)c(=O)n1CC(=O)NCc1cc(Cl)ccc1CN`, the Ki at Prothrombin is 0.046 nM; on Serine protease 1 [1], 1.85 µM. Also, the “2x APTT” value in the test listed under Homo sapiens came to 0.16 µM. Further, the Selectivity ratio on Serine protease 1 [2] worked out at 40200.

On Serine protease 1 [1], `N[C@H](Cc1ccccc1)C(=O)N1CCC[C@H]1C(=O)NCc1ccccc1` gave a Ki of over 1000 µM. The Selectivity ratio at Serine protease 1 [2] was over 217.

In the case of `Cc1nc(N)ccc1CNC(=O)Cn1c(C)cnc(NCCc2ccccc2)c1=O` [L-375378], the “2x APTT” value in the test listed under Homo sapiens is 0.41 µM. For the same molecule, the Selectivity ratio at Serine protease 1 [2] was 1910.

In the case of `NCc1ccc(Cl)cc1CNC(=O)Cn1c(Cl)cnc(NCC(F)(F)c2cccc[n+]2[O-])c1=O`, the inhibitory constant (Ki) was 0.0034 nM on Prothrombin and 0.415 µM at Serine protease 1 [1]. For the same molecule, the “2x APTT” value in the test listed under Homo sapiens is 0.13 µM.

In the case of `COc1ccc2cc(S(=O)(=O)NC(Cc3ccc(CN)cc3)C(=O)N(C)C3CCCC3)ccc2c1` (configuration not stated), the Ki is 6.6 nM on Prothrombin and 14.2 µM on Serine protease 1 [1].

As for `Cc1cnc(NCCc2ccccc2)c(=O)n1CC(=O)NCc1cc(Cl)ccc1CN`, the Ki at Prothrombin is 0.13 nM; at Serine protease 1 [1], 1.6 µM. In addition, the “2x APTT” value in the test listed under Homo sapiens amounted to 0.41 µM. At Serine protease 1 [2], the Selectivity ratio is 12300.

As for `NCc1ccccc1CNC(=O)[C@@H]1CCCN1C(=O)[C@H](N)Cc1ccccc1`, the Ki is 313 nM at Prothrombin and 106 µM on Serine protease 1 [1]. For the same molecule, the Selectivity ratio at Serine protease 1 [2] was 339.

With `N[C@H](Cc1ccccc1)C(=O)N1CCC[C@H]1C(=O)NCc1cccc(Cl)c1`, the values for the Ki at Prothrombin and at Serine protease 1 [1] were 250 nM and 89 µM, respectively. For the same molecule, the Selectivity ratio at Serine protease 1 [2] came to 356.

Turning to `NCCc1ccc(Cl)cc1CNC(=O)[C@@H]1CCCN1C(=O)[C@H](N)Cc1ccccc1`, the Ki on Prothrombin stood at 62 nM; on Serine protease 1 [1], 252 µM. The Selectivity ratio on Serine protease 1 [2] came to 4060.

Consider `Cc1ccc(NS(=O)(=O)Cc2ccccc2)c(=O)n1CC(=O)NCc1ccccc1CCN`, for which the Ki on Prothrombin worked out at 4.1 nM; on Serine protease 1 [1], 437 µM. Moreover, the “2x APTT” value in the test filed under Homo sapiens was found to be 0.53 µM. Moreover, on Serine protease 1 [2], the Selectivity ratio worked out at 107000.

As for `Cc1ccc(NS(=O)(=O)Cc2ccccc2)c(=O)n1CC(=O)NCc1cccc(CN)c1`, the inhibition constant Ki on Prothrombin was 490 nM; on Serine protease 1 [1] it was 23 µM. Moreover, the Selectivity ratio on Serine protease 1 [2] worked out at 46.9.

Take `Cc1ccc(NS(=O)(=O)Cc2ccccc2)c(=O)n1CC(=O)NCc1cc(Cl)ccc1CCN`: the inhibition constant Ki was determined as 0.05 nM at Prothrombin and 37 µM on Serine protease 1 [1]. In addition, the “2x APTT” value in the test listed under Homo sapiens came out at 0.18 µM. In addition, the Selectivity ratio on Serine protease 1 [2] is 740000.

`NCc1ccc(Cl)cc1CNC(=O)[C@@H]1CCCN1C(=O)[C@H](N)Cc1ccccc1`: the Ki on Prothrombin came out at 3.3 nM; at Serine protease 1 [1], 6.2 µM. Also, the “2x APTT” value in the test listed under Homo sapiens was determined as 0.34 µM. Further, the Selectivity ratio on Serine protease 1 [2] came out at 1910.

Consider `Cc1cc(CNC(=O)[C@@H]2CCCN2C(=O)[C@H](N)C(c2ccccc2)c2ccccc2)c(C)cc1CN`, for which, at Prothrombin, the Ki came to 39 nM.

Consider `CN(C(=O)C(Cc1ccc(CN)cc1)NS(=O)(=O)c1ccc2c(c1)CCCCC2)C1CCCC1` (configuration not stated), for which the Ki on Prothrombin came to 3.3 nM; on Serine protease 1 [1], 6.3 µM.

Turning to `Cc1ccc(NS(=O)(=O)Cc2ccccc2)c(=O)n1CC(=O)NCc1cccc(Cl)c1`, the Ki on Prothrombin came to 7.1 nM; at Serine protease 1 [1], 20 µM. For the same molecule, the “2x APTT” value in the test filed under Homo sapiens was 2.8 µM. In addition, the Selectivity ratio at Serine protease 1 [2] worked out at 2790.

As for `Cc1ccc(NS(=O)(=O)Cc2ccccc2)c(=O)n1CC(=O)NCc1ccc(CN)cc1`, the Ki came out at 49 nM at Prothrombin and 1.3 µM at Serine protease 1 [1]. Besides, the Selectivity ratio at Serine protease 1 [2] is 26.5.

For `Cc1ccc(NS(=O)(=O)Cc2ccccc2)c(=O)n1CC(=O)NCc1ccccc1CN`, the figures for the Ki on Prothrombin and on Serine protease 1 [1] were 5.2 nM and 67 µM, respectively. Moreover, the “2x APTT” value in the test listed under Homo sapiens turned out to be 0.44 µM. Moreover, on Serine protease 1 [2], the Selectivity ratio turned out to be 12900.

With `Cc1nc(N)ccc1CNC(=O)Cn1c(C)ccc(NS(=O)(=O)Cc2ccccc2)c1=O` [L-374087], in the test listed under Homo sapiens, the “2x APTT” value was 0.22 µM. Moreover, at Serine protease 1 [2], the Selectivity ratio was determined as 6400.

In the case of `Cc1ccc(NS(=O)(=O)Cc2ccccc2)c(=O)n1CC(=O)NCc1ccccc1N`, the inhibition constant (Ki) at Prothrombin is 470 nM; on Serine protease 1 [1], over 1000 µM. Besides, at Serine protease 1 [2], the Selectivity ratio was over 2130.

At Serine protease 1 [1], `Cc1ccc(NS(=O)(=O)Cc2ccccc2)c(=O)n1CC(=O)NCc1ccccc1` gave a Ki of 466 µM. For the same molecule, the Selectivity ratio at Serine protease 1 [2] came out at 3580.
